Test results reported in patent publication US9688702B2, “Alpha-amino boronic acid derivatives, selective immunoproteasome inhibitors” (Ares Trading S.A, priority 2011, dated 2017).

Experiments:
[1] = target: LMP7 (purified human immuno proteasome) (Homo sapiens, UniProt P28062); assay: Determination of LMP7 activity (fluorescence intensity assay, Suc-LLVY-AMC); format: biochemical; details: for IC50: 40 μM Suc-LLVY-AMC, 37° C.
Protocol: Measurement of LMP7 inhibition is performed in 384 well format based on fluorescence intensity assay.
(§1) Purified human immuno proteasome (0.5 nM) and serial diluted compounds in DMSO (range of concentrations from 10 μM to 38 pM) or controls (0.5% DMSO) are incubated for 30 minutes at 37° C. in assay buffer containing 50 mM Tris pH 7.4 and 0.03% SDS. The reaction is initiated by the addition of the fluorogenic peptide substrate, Suc-LLVY-AMC (Bachem I-1395), at a concentration of 40 μM. After 90 minutes of incubation at 37° C., fluorescence intensity is measured at λex=350 nm and λem=450 nm with a fluorescence reader (BMG Pherastar reader or equivalent).
as §1, with “proteasome (0.25” for “proteasome (0.5”

[2] = target: Beta5 (purified human constitutive proteasome) (Homo sapiens, UniProt P28074); assay: Determination of Beta5 activity (fluorescence intensity assay, Suc-LLVY-AMC); format: biochemical; details: purified human constitutive proteasome 1.0 nM, 40 μM Suc-LLVY-AMC, 37° C.
Protocol: Measurement of Beta5 inhibition is performed in 384 well format based on fluorescence intensity assay.
as §1, with “human constitutive” for “human immuno”, “proteasome (1.0” for “proteasome (0.5”, “(Bachem 1-1395),” for “(Bachem I-1395),”

[3] = purified human immuno proteasome 0.5 nM
[4] = purified human immuno proteasome 0.25 nM (examples 79, 80, 83, 84, 85, 87, 88, 89, 90, 91, 93, 94, 96, 97, 101 and 110)

| Selectivity LMP7 vs Beta5 [1] | IC50 [1, 3] | IC50 [2] | IC50 [1, 4] | SMILES |
| --- | --- | --- | --- | --- |
| + (+: Selectivity < 10) | > 5000 nM | > 5000 nM | – | COc1ccc2occ(C[C@H](NC(C)=O)B(O)O)c2c1 [Example 108, (R)-(1-acetamido-2-(5-methoxybenzofuran-3-yl)ethyl)boronic acid] |
| +++ (+++: Selectivity > 30) | < 50 nM | 50 to 500 nM | – | CCc1cccc(C[C@H](NC(=O)CCn2cc(-c3cccc(OC)c3)nn2)B(O)O)c1 [Example 74, (R)-(2-(3-ethylphenyl)-1-(3-(4-(3-methoxyphenyl)-1H-1,2,3-triazol-1-yl)propanamido)ethyl)boronic acid] |
| ++ (++: 10 < Selectivity < 30) | 50 to 500 nM | 500 to 5000 nM | – | O=C(CCC(=O)c1cccc(-c2ccccc2)c1)N[C@@H](Cc1ccsc1)B(O)O [Example 22, [(1R)-1-[(4-biphenyl-3-yl-4-oxobutanoyl)amino]-2-(3-thienyl)ethyl]boronic acid] |
| ++ (++: 10 < Selectivity < 30) | 50 to 500 nM | 500 to 5000 nM | – | CCc1cccc(C[C@H](NC(=O)CCC(=O)c2ccc(-c3ccccc3)cc2)B(O)O)c1 [Example 17, [(1R)-1-[(4-biphenyl-4-yl-4-oxobutanoyl)amino]-2-(3-ethylphenyl)ethyl]boronic acid] |
| ++ (++: 10 < Selectivity < 30) | < 50 nM | < 50 nM | – | O=C(CCn1cc(-c2ccccc2)nn1)N[C@@H](Cc1ccc2c(c1)OCO2)B(O)O [Example 107, (R)-(2-(benzo[d][1,3]dioxol-5-yl)-1-(3-(4-phenyl-1H-1,2,3-triazol-1-yl)propanamido)ethyl)boronic acid] |
| +++ (+++: Selectivity > 30) | – | 50 to 500 nM | < 50 nM | CN(CC(=O)N[C@@H](Cc1coc2ccccc12)B(O)O)S(C)(=O)=O [Example 91, (R)-(2-(benzofuran-3-yl)-1-(2-(N-methylmethylsulfonamido)acetamido)ethyl)boronic acid] |
| ++ (++: 10 < Selectivity < 30) | 50 to 500 nM | 500 to 5000 nM | – | O=C(CCC(=O)c1ccc2ccccc2c1)N[C@@H](Cc1ccsc1)B(O)O [Example 21, [(1R)-1-{[4-(2-naphthyl)-4-oxobutanoyl]amino}-2-(3-thienyl)ethyl]boronic acid] |
| +++ (+++: Selectivity > 30) | – | < 50 nM | < 50 nM | O=C(CCc1ccccc1)N[C@@H](Cc1coc2ccccc12)B(O)O [Example 94, (R)-(2-(benzofuran-3-yl)-1-(3-phenylpropanamido)ethyl)boronic acid] |
| +++ (+++: Selectivity > 30) | – | 50 to 500 nM | < 50 nM | COc1ccc(CCC(=O)N[C@@H](Cc2coc3ccccc23)B(O)O)cc1 [Example 79, (R)-(2-(benzofuran-3-yl)-1-(3-(4-methoxyphenyl)propanamido)ethyl) boronic acid] |
| + (+: Selectivity < 10) | 50 to 500 nM | 50 to 500 nM | – | O=C(CCn1ncc2ccccc21)N[C@@H](Cc1ccsc1)B(O)O [Example 32, [(1R)-1-{[3-(1H-indazol-1-yl)propanoyl]amino}-2-(3-thienyl)ethyl]boronic acid] |
| ++ (++: 10 < Selectivity < 30) | < 50 nM | 50 to 500 nM | – | COc1cc(F)cc(C[C@H](NC(=O)CCn2cnc3ccccc32)B(O)O)c1 [Example 57, (R)-(1-(3-(1H-benzo[d]imidazol-1-yl)propanamido)-2-(3-fluoro-5-methoxyphenyl)ethyl)boronic acid] |
| ++ (++: 10 < Selectivity < 30) | – | < 50 nM | < 50 nM | O=C(CCn1cc(-c2ccccc2)nn1)N[C@@H](Cc1coc2ccccc12)B(O)O [Example 89, (R)-(2-(benzofuran-3-yl)-1-(3-(4-phenyl-1H-1,2,3-triazol-1-yl)propanamido)ethyl)boronic acid] |
| ++ (++: 10 < Selectivity < 30) | 50 to 500 nM | 500 to 5000 nM | – | O=C(CCc1noc(-c2ccccc2)n1)N[C@@H](Cc1cccc(OC(F)(F)F)c1)B(O)O [Example 60, (R)-(1-(3-(5-phenyl-1,2,4-oxadiazol-3-yl)propanamido)-2-(3-(trifluoromethoxy)phenyl)ethyl)boronic acid] |
| +++ (+++: Selectivity > 30) | 50 to 500 nM | > 5000 nM | – | COc1ccc(C(=O)C[C@@H](Cc2ccccc2)C(=O)N[C@@H](Cc2ccsc2)B(O)O)cc1 (single isomer, unassigned) [Example 25] |
| ++ (++: 10 < Selectivity < 30) | – | < 50 nM | < 50 nM | COc1cccc(CCC(=O)N[C@@H](Cc2coc3ccccc23)B(O)O)c1 [Example 84, (R)-(2-(benzofuran-3-yl)-1-(3-(3-methoxyphenyl)propanamido)ethyl) boronic acid] |
| +++ (+++: Selectivity > 30) | – | < 50 nM | < 50 nM | O=C(CCn1c(=O)sc2ccccc21)N[C@@H](Cc1c[nH]c2ccccc12)B(O)O [Example 101] |
| +++ (+++: Selectivity > 30) | < 50 nM | 500 to 5000 nM | – | CCc1cccc(C[C@H](NC(=O)CCc2noc(-c3ccccc3)n2)B(O)O)c1 [Example 36, ((1R)-2-(3-ethylphenyl)-1-{[3-(5-phenyl-1,2,4-oxadiazol-3-yl)propanoyl]amino}ethyl)boronic acid] |
| ++ (++: 10 < Selectivity < 30) | < 50 nM | < 50 nM | – | O=C(CCn1c(=O)sc2ccccc21)N[C@@H](Cc1csc2ccccc12)B(O)O [Example 105, (R)-(2-(benzo[b]thiophen-3-yl)-1-(3-(2-oxobenzo[d]thiazol-3(2H)-yl)propanamido)ethyl)boronic acid] |
| +++ (+++: Selectivity > 30) | < 50 nM | 50 to 500 nM | – | O=C(CCC1CCCCC1)N[C@@H](Cc1coc2ccccc12)B(O)O [Example 86, (R)-(2-(benzofuran-3-yl)-1-(3-cyclohexylpropanamido)ethyl)boronic acid] |
| – | 50 to 500 nM | > 5000 nM | – | CCc1cccc(C[C@H](NC(=O)CCC(=O)c2ccccc2OC)B(O)O)c1 [Example 8, ((1R)-2-(3-ethylphenyl)-1-{[4-(2-methoxyphenyl)-4-oxobutanoyl]amino}ethyl)boronic acid] |
| +++ (+++: Selectivity > 30) | 50 to 500 nM | 500 to 5000 nM | – | CC(=O)N[C@@H](Cc1ccc2ccccc2c1)B(O)O [Example 95, (R)-(1-acetamido-2-(naphthalen-2-yl)ethyl)boronic acid] |
| ++ (++: 10 < Selectivity < 30) | < 50 nM | 50 to 500 nM | – | O=C(CCn1cc(-c2ccccc2)nn1)N[C@@H](Cc1ccc(F)c(C(F)(F)F)c1)B(O)O [Example 71, (R)-(2-(4-fluoro-3-(trifluoromethyl)phenyl)-1-(3-(4-phenyl-1H-1,2,3-triazol-1-yl)propanamido)ethyl)boronic acid] |
| – | 50 to 500 nM | > 5000 nM | – | COc1ccc(C(=O)CCC(=O)N[C@@H](Cc2ccc(OC)c(C(F)(F)F)c2)B(O)O)cc1 [Example 46, (R)-(2-(4-methoxy-3-(trifluoromethyl)phenyl)-1-(4-(4-methoxyphenyl)-4-oxobutanamido)ethyl)boronic acid] |
| + (+: Selectivity < 10) | < 50 nM | 50 to 500 nM | – | O=C(CCn1c(=O)sc2ccccc21)N[C@@H](Cc1ccsc1)B(O)O [Example 34, [(1R)-1-{[3-(2-oxo-1,3-benzothiazol-3(2H)-yl)propanoyl]amino}-2-(3-thienyl)ethyl]boronic acid] |
| +++ (+++: Selectivity > 30) | 50 to 500 nM | > 5000 nM | – | CCc1cccc(C[C@H](NC(=O)CCC(=O)c2ccc(OC)cc2)B(O)O)c1 [Example 7, ((1R)-2-(3-ethylphenyl)-1-{[4-(4-methoxyphenyl)-4-oxobutanoyl]amino}ethyl)boronic acid] |
| ++ (++: 10 < Selectivity < 30) | – | < 50 nM | < 50 nM | O=C(CCn1cnc2ccccc21)N[C@@H](Cc1coc2ccccc12)B(O)O [Example 88, (R)-(1-(3-(1H-benzo[d]imidazol-1-yl)propanamido)-2-(benzofuran-3-yl)ethyl)boronic acid] |
